Drawing on patent publication US6339098B1, “2,1-benzisothiazoline 2,2-dioxides” (American Home Products Corporation, priority 1999, dated 2002), this text covers IC50 for one compound.

The structures appear in SMILES notation.

The experiment deals with T1, human PR (hPR-B) (Homo sapiens, UniProt P06401).
T1 construct: expressed in transfected cells; host or cells: CV-1 cells (electroporation with pLEM-hPR-B and pGL3-2xPRE-luciferase)
T1 sequence (P06401 1-933): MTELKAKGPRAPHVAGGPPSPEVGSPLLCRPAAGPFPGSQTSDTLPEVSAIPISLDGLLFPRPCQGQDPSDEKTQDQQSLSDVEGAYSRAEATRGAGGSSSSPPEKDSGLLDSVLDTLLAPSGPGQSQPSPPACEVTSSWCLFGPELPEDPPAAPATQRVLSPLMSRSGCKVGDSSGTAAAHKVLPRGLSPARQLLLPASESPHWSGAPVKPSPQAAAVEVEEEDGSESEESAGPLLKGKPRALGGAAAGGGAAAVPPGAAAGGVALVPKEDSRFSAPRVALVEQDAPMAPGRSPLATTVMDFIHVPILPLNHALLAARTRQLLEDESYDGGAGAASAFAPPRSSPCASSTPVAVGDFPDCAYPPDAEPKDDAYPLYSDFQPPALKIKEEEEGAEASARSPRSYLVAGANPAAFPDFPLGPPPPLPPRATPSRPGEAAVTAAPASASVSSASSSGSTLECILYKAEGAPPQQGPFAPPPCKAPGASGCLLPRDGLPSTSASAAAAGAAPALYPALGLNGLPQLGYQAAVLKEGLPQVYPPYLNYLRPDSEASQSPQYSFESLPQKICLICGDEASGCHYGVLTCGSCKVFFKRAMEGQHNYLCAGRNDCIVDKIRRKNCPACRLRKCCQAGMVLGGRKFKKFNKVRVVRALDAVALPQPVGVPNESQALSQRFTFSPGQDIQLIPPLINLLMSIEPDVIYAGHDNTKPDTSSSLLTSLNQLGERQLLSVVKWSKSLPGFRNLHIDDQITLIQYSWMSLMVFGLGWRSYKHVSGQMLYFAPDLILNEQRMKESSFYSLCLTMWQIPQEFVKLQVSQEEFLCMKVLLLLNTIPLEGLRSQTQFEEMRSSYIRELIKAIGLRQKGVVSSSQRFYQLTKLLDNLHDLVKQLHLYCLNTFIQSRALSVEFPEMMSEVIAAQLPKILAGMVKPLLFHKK
Description: PRE-luciferase reporter activity in CV-1 cells co-transfected with human PR and PRE-luciferase plasmids (antiprogestational activity). Format: cell-based. The conditions noted are these: CV-1 cells co-transfected with hPR-B and PRE-luciferase; in the presence of 3 nM progesterone; 24 h treatment; read-out: IC50 (concentration giving half-maximal decrease in 3 nM progesterone induced PRE-luciferase activity). Here is the method:
The procedure used and results obtained are described in Example 2 below.
Growth medium: DMEM (BioWhittaker) containing 10% (v/v) fetal bovine serum (heat inactivated), 0.1 mM MEM non-essential amino acids, 100 U/ml penicillin, […] streptomycin, and 2 mM GlutaMax (GIBCO, BRL).
Experimental medium: DMEM (BioWhittaker), phenol red-free, containing 10% (v/v) charcoal-stripped fetal bovine serum (heat-inactivated), 0.1 mM MEM non-essential amino acids, 100 U/ml penicillin, […] streptomycin, and 2 mM GlutaMax (GIBCO, BRL).
Stock CV-1 cells were maintained in growth medium. Co-transfection was done using 1.2×10^7 cells, 5 mg pLEM plasmid with hPR-B inserted at Sph1 and BamH1 sites, 10 mg pGL3 plasmid with two PREs upstream of the luciferase sequence, and 50 mg sonicated calf thymus DNA as carrier DNA in […]. Electroporation was carried out at 260 V and […] in a Biorad Gene Pulser II. After electroporation, cells were resuspended in growth medium and plated in 96-well plate at 40,000 cells/well in […]. Following overnight incubation, the medium was changed to experimental medium Cells were then treated with reference or test compounds in experimental medium. Compounds were tested for antiprogestational activity in the presence of 3 nM progesterone. […] Luciferase activity was measured using luciferase reagents from Promega. […]

As to `O=S1(=O)Nc2ccc(-c3cccc(Cl)c3)cc2C12CCCCC2` [Example 1], the IC50 came out at 900 nM.
